Measured values published in the NIST ThermoML archive (doi:10.1016/j.jct.2014.08.023).
Numbers after ± are expanded uncertainties.

Details: Liquid, Vibrating tube method

Structure (SMILES): CC(C)OC(C)C [diisopropyl ether]
- mass density (293.15 K, 100 kPa): 723.5 ± 0.7 kg/m3
- mass density (293.15 K, 1000 kPa): 724.3 ± 0.7 kg/m3
- mass density (293.15 K, 5000 kPa): 729.1 ± 0.7 kg/m3
- mass density (293.15 K, 10000 kPa): 734.5 ± 0.7 kg/m3
- mass density (293.15 K, 15000 kPa): 739.6 ± 0.8 kg/m3
- mass density (293.15 K, 20000 kPa): 744.5 ± 0.8 kg/m3
- mass density (293.15 K, 25000 kPa): 749 ± 0.8 kg/m3
- mass density (293.15 K, 30000 kPa): 753.3 ± 0.8 kg/m3
- mass density (293.15 K, 35000 kPa): 757.4 ± 0.8 kg/m3
- mass density (293.15 K, 40000 kPa): 761.3 ± 0.8 kg/m3
- mass density (293.15 K, 45000 kPa): 765 ± 0.9 kg/m3
- mass density (293.15 K, 50000 kPa): 768.6 ± 0.9 kg/m3
- mass density (293.15 K, 55000 kPa): 772.1 ± 0.9 kg/m3
- mass density (293.15 K, 60000 kPa): 775.4 ± 0.9 kg/m3
- mass density (293.15 K, 65000 kPa): 778.6 ± 1 kg/m3
- mass density (293.15 K, 70000 kPa): 781.7 ± 1 kg/m3
- mass density (293.15 K, 80000 kPa): 787.6 ± 1 kg/m3
- mass density (293.15 K, 90000 kPa): 793.2 ± 1.1 kg/m3
- mass density (293.15 K, 100000 kPa): 798.5 ± 1.1 kg/m3
- mass density (293.15 K, 110000 kPa): 803.6 ± 1.1 kg/m3
- mass density (293.15 K, 120000 kPa): 808.4 ± 1.2 kg/m3
- mass density (293.15 K, 130000 kPa): 812.9 ± 1.2 kg/m3
- mass density (293.15 K, 140000 kPa): 817.3 ± 1.2 kg/m3
- mass density (298.15 K, 100 kPa): 718.3 ± 0.7 kg/m3
- mass density (298.15 K, 1000 kPa): 719.5 ± 0.7 kg/m3
- mass density (298.15 K, 5000 kPa): 724.5 ± 0.7 kg/m3
- mass density (298.15 K, 10000 kPa): 730.2 ± 0.7 kg/m3
- mass density (298.15 K, 15000 kPa): 735.6 ± 0.8 kg/m3
- mass density (298.15 K, 20000 kPa): 740.5 ± 0.8 kg/m3
- mass density (298.15 K, 25000 kPa): 745.2 ± 0.8 kg/m3
- mass density (298.15 K, 30000 kPa): 749.6 ± 0.8 kg/m3
- mass density (298.15 K, 35000 kPa): 753.7 ± 0.8 kg/m3
- mass density (298.15 K, 40000 kPa): 757.7 ± 0.9 kg/m3
- mass density (298.15 K, 45000 kPa): 761.6 ± 0.9 kg/m3
- mass density (298.15 K, 50000 kPa): 765.2 ± 0.9 kg/m3
- mass density (298.15 K, 55000 kPa): 768.7 ± 0.9 kg/m3
- mass density (298.15 K, 60000 kPa): 772.1 ± 0.9 kg/m3
- mass density (298.15 K, 65000 kPa): 775.4 ± 1 kg/m3
- mass density (298.15 K, 70000 kPa): 778.5 ± 1 kg/m3
- mass density (298.15 K, 80000 kPa): 784.5 ± 1 kg/m3
- mass density (298.15 K, 90000 kPa): 790.3 ± 1.1 kg/m3
- mass density (298.15 K, 100000 kPa): 795.6 ± 1.1 kg/m3
- mass density (298.15 K, 110000 kPa): 800.8 ± 1.1 kg/m3
- mass density (298.15 K, 120000 kPa): 805.6 ± 1.2 kg/m3
- mass density (298.15 K, 130000 kPa): 810.3 ± 1.2 kg/m3
- mass density (298.15 K, 140000 kPa): 814.6 ± 1.3 kg/m3
- mass density (313.15 K, 100 kPa): 702.4 ± 0.7 kg/m3
- mass density (313.15 K, 1000 kPa): 703.7 ± 0.7 kg/m3
- mass density (313.15 K, 5000 kPa): 709.3 ± 0.7 kg/m3
- mass density (313.15 K, 10000 kPa): 715.7 ± 0.7 kg/m3
- mass density (313.15 K, 15000 kPa): 721.6 ± 0.8 kg/m3
- mass density (313.15 K, 20000 kPa): 727.1 ± 0.8 kg/m3
- mass density (313.15 K, 25000 kPa): 732 ± 0.8 kg/m3
- mass density (313.15 K, 30000 kPa): 737.1 ± 0.8 kg/m3
- mass density (313.15 K, 35000 kPa): 741.5 ± 0.8 kg/m3
- mass density (313.15 K, 40000 kPa): 745.8 ± 0.9 kg/m3
- mass density (313.15 K, 45000 kPa): 749.9 ± 0.9 kg/m3
- mass density (313.15 K, 50000 kPa): 753.8 ± 0.9 kg/m3
- mass density (313.15 K, 55000 kPa): 757.6 ± 0.9 kg/m3
- mass density (313.15 K, 60000 kPa): 761.3 ± 1 kg/m3
- mass density (313.15 K, 65000 kPa): 764.8 ± 1 kg/m3
- mass density (313.15 K, 70000 kPa): 768.1 ± 1 kg/m3
- mass density (313.15 K, 80000 kPa): 774.3 ± 1 kg/m3
- mass density (313.15 K, 90000 kPa): 780.4 ± 1.1 kg/m3
- mass density (313.15 K, 100000 kPa): 786 ± 1.1 kg/m3
- mass density (313.15 K, 110000 kPa): 791.4 ± 1.2 kg/m3
- mass density (313.15 K, 120000 kPa): 796.4 ± 1.2 kg/m3
- mass density (313.15 K, 130000 kPa): 801.3 ± 1.3 kg/m3
- mass density (313.15 K, 140000 kPa): 806 ± 1.3 kg/m3
- mass density (333.15 K, 100 kPa): 680.4 ± 0.7 kg/m3
- mass density (333.15 K, 1000 kPa): 682 ± 0.7 kg/m3
- mass density (333.15 K, 5000 kPa): 688.8 ± 0.7 kg/m3
- mass density (333.15 K, 10000 kPa): 696.3 ± 0.8 kg/m3
- mass density (333.15 K, 15000 kPa): 703.1 ± 0.8 kg/m3
- mass density (333.15 K, 20000 kPa): 709.3 ± 0.8 kg/m3
- mass density (333.15 K, 25000 kPa): 715 ± 0.8 kg/m3
- mass density (333.15 K, 30000 kPa): 720.4 ± 0.8 kg/m3
- mass density (333.15 K, 35000 kPa): 725.5 ± 0.9 kg/m3
- mass density (333.15 K, 40000 kPa): 730.2 ± 0.9 kg/m3
- mass density (333.15 K, 45000 kPa): 734.7 ± 0.9 kg/m3
- mass density (333.15 K, 50000 kPa): 739 ± 0.9 kg/m3
- mass density (333.15 K, 55000 kPa): 743.1 ± 1 kg/m3
- mass density (333.15 K, 60000 kPa): 747 ± 1 kg/m3
- mass density (333.15 K, 65000 kPa): 750.8 ± 1 kg/m3
- mass density (333.15 K, 70000 kPa): 754.3 ± 1 kg/m3
- mass density (333.15 K, 80000 kPa): 761.2 ± 1.1 kg/m3
- mass density (333.15 K, 90000 kPa): 767.7 ± 1.1 kg/m3
- mass density (333.15 K, 100000 kPa): 773.6 ± 1.2 kg/m3
- mass density (333.15 K, 110000 kPa): 779.3 ± 1.2 kg/m3
- mass density (333.15 K, 120000 kPa): 784.6 ± 1.3 kg/m3
- mass density (333.15 K, 130000 kPa): 789.8 ± 1.3 kg/m3
- mass density (333.15 K, 140000 kPa): 794.7 ± 1.3 kg/m3
- mass density (353.19 K, 1000 kPa): 659.5 ± 0.7 kg/m3
- mass density (353.19 K, 5000 kPa): 667.5 ± 0.7 kg/m3
- mass density (353.19 K, 10000 kPa): 676.4 ± 0.8 kg/m3
- mass density (353.19 K, 15000 kPa): 684.4 ± 0.8 kg/m3
- mass density (353.19 K, 20000 kPa): 691.5 ± 0.8 kg/m3
- mass density (353.19 K, 25000 kPa): 698 ± 0.8 kg/m3
- mass density (353.19 K, 30000 kPa): 704 ± 0.8 kg/m3
- mass density (353.19 K, 35000 kPa): 709.6 ± 0.9 kg/m3
- mass density (353.19 K, 40000 kPa): 714.8 ± 0.9 kg/m3
- mass density (353.19 K, 45000 kPa): 719.7 ± 0.9 kg/m3
- mass density (353.19 K, 50000 kPa): 724.5 ± 0.9 kg/m3
- mass density (353.19 K, 55000 kPa): 728.9 ± 1 kg/m3
- mass density (353.19 K, 60000 kPa): 733.1 ± 1 kg/m3
- mass density (353.19 K, 65000 kPa): 737.2 ± 1 kg/m3
- mass density (353.19 K, 70000 kPa): 741.1 ± 1.1 kg/m3
- mass density (353.19 K, 80000 kPa): 748.4 ± 1.1 kg/m3
- mass density (353.19 K, 90000 kPa): 755.3 ± 1.2 kg/m3
- mass density (353.19 K, 100000 kPa): 761.6 ± 1.2 kg/m3
- mass density (353.19 K, 110000 kPa): 767.7 ± 1.3 kg/m3
- mass density (353.19 K, 120000 kPa): 773.4 ± 1.3 kg/m3
- mass density (353.19 K, 130000 kPa): 778.8 ± 1.3 kg/m3
- mass density (353.19 K, 140000 kPa): 784 ± 1.4 kg/m3
- mass density (373.24 K, 1000 kPa): 635.5 ± 0.7 kg/m3
- mass density (373.24 K, 5000 kPa): 645.5 ± 0.7 kg/m3
- mass density (373.24 K, 10000 kPa): 656.1 ± 0.8 kg/m3
- mass density (373.24 K, 15000 kPa): 665.3 ± 0.8 kg/m3
- mass density (373.24 K, 20000 kPa): 673.4 ± 0.8 kg/m3
- mass density (373.24 K, 25000 kPa): 680.8 ± 0.8 kg/m3
- mass density (373.24 K, 30000 kPa): 687.6 ± 0.9 kg/m3
- mass density (373.24 K, 35000 kPa): 693.8 ± 0.9 kg/m3
- mass density (373.24 K, 40000 kPa): 699.6 ± 0.9 kg/m3
- mass density (373.24 K, 45000 kPa): 705 ± 0.9 kg/m3
- mass density (373.24 K, 50000 kPa): 710.1 ± 1 kg/m3
- mass density (373.24 K, 55000 kPa): 714.9 ± 1 kg/m3
- mass density (373.24 K, 60000 kPa): 719.5 ± 1 kg/m3
- mass density (373.24 K, 65000 kPa): 723.9 ± 1.1 kg/m3
- mass density (373.24 K, 70000 kPa): 728.1 ± 1.1 kg/m3
- mass density (373.24 K, 80000 kPa): 735.9 ± 1.1 kg/m3
- mass density (373.24 K, 90000 kPa): 743.2 ± 1.2 kg/m3
- mass density (373.24 K, 100000 kPa): 750 ± 1.2 kg/m3
- mass density (373.24 K, 110000 kPa): 756.3 ± 1.3 kg/m3
- mass density (373.24 K, 120000 kPa): 762.3 ± 1.3 kg/m3
- mass density (373.24 K, 130000 kPa): 768 ± 1.4 kg/m3
- mass density (373.24 K, 140000 kPa): 773.3 ± 1.4 kg/m3
- mass density (393.29 K, 1000 kPa): 609.5 ± 0.7 kg/m3
- mass density (393.29 K, 5000 kPa): 622.1 ± 0.8 kg/m3
- mass density (393.29 K, 10000 kPa): 634.9 ± 0.8 kg/m3
- mass density (393.29 K, 15000 kPa): 645.7 ± 0.8 kg/m3
- mass density (393.29 K, 20000 kPa): 655.1 ± 0.8 kg/m3
- mass density (393.29 K, 25000 kPa): 663.4 ± 0.8 kg/m3
- mass density (393.29 K, 30000 kPa): 671 ± 0.9 kg/m3
- mass density (393.29 K, 35000 kPa): 677.9 ± 0.9 kg/m3
- mass density (393.29 K, 40000 kPa): 684.3 ± 0.9 kg/m3
- mass density (393.29 K, 45000 kPa): 690.2 ± 1 kg/m3
- mass density (393.29 K, 50000 kPa): 695.7 ± 1 kg/m3
- mass density (393.29 K, 55000 kPa): 701 ± 1 kg/m3
- mass density (393.29 K, 60000 kPa): 705.9 ± 1.1 kg/m3
- mass density (393.29 K, 65000 kPa): 710.6 ± 1.1 kg/m3
- mass density (393.29 K, 70000 kPa): 715.1 ± 1.1 kg/m3
- mass density (393.29 K, 80000 kPa): 723.5 ± 1.2 kg/m3
- mass density (393.29 K, 90000 kPa): 731.3 ± 1.2 kg/m3
- mass density (393.29 K, 100000 kPa): 738.3 ± 1.3 kg/m3
- mass density (393.29 K, 110000 kPa): 745.2 ± 1.3 kg/m3
- mass density (393.29 K, 120000 kPa): 751.3 ± 1.4 kg/m3
- mass density (393.29 K, 130000 kPa): 757.4 ± 1.4 kg/m3
- mass density (393.29 K, 140000 kPa): 763 ± 1.5 kg/m3
